According to patent publication US11267859B2, “GM-CSF mimetics and methods of making and using same” (The Regents of the University of Colorado, a body corporate, priority 2017, dated 2022):

Assays:
mouse receptor = target: T1, mouse receptor (Mus musculus, UniProt P26955+Q00941); test: Activity for the mouse GM-CSF receptor
T1 sequence (Q00941 30-388): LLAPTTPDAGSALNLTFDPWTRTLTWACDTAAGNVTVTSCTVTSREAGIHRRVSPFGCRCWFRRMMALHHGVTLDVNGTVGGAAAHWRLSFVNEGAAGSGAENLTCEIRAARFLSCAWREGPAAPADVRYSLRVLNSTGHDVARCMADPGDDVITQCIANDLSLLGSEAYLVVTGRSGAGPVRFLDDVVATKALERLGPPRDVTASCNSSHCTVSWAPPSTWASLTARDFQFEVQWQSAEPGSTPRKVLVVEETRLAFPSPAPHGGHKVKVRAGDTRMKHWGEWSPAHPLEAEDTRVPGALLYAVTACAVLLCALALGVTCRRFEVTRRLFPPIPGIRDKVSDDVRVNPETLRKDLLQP
T1 sequence (P26955 23-896): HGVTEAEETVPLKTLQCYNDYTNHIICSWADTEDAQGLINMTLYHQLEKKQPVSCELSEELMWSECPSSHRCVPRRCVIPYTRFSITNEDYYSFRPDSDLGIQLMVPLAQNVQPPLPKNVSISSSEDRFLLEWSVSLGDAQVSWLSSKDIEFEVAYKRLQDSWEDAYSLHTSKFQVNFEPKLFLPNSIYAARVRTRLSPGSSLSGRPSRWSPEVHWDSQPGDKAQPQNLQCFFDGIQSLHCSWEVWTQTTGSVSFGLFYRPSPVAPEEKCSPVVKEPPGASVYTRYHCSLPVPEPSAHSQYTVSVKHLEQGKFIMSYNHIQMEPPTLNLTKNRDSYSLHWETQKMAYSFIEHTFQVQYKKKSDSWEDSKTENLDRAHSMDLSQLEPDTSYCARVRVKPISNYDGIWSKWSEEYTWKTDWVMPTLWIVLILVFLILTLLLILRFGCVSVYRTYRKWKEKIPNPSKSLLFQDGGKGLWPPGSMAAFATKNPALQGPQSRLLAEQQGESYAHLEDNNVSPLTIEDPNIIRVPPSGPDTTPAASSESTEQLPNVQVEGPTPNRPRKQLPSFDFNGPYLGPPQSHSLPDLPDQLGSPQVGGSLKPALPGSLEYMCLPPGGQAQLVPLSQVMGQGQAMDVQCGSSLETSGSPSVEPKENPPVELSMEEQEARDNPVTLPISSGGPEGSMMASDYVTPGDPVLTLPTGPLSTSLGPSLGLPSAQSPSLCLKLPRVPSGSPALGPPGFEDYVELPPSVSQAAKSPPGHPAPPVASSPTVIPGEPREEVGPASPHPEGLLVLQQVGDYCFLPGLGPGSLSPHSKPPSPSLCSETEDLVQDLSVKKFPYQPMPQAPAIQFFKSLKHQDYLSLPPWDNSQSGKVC

human receptor = target: T2, human receptor (Homo sapiens, UniProt P15509+P32927); test: Activity for the human GM-CSF receptor
T2 sequence (P15509 23-400): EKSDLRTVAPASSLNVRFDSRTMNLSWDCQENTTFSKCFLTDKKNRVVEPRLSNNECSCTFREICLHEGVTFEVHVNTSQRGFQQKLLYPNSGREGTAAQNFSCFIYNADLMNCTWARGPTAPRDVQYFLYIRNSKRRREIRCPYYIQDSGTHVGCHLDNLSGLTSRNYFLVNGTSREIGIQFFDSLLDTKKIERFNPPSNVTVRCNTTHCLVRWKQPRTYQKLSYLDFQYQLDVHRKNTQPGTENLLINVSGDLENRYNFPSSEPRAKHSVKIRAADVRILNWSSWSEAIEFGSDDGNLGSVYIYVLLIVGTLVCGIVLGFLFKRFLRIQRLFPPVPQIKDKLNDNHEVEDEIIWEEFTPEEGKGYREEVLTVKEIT
T2 sequence (P32927 17-897): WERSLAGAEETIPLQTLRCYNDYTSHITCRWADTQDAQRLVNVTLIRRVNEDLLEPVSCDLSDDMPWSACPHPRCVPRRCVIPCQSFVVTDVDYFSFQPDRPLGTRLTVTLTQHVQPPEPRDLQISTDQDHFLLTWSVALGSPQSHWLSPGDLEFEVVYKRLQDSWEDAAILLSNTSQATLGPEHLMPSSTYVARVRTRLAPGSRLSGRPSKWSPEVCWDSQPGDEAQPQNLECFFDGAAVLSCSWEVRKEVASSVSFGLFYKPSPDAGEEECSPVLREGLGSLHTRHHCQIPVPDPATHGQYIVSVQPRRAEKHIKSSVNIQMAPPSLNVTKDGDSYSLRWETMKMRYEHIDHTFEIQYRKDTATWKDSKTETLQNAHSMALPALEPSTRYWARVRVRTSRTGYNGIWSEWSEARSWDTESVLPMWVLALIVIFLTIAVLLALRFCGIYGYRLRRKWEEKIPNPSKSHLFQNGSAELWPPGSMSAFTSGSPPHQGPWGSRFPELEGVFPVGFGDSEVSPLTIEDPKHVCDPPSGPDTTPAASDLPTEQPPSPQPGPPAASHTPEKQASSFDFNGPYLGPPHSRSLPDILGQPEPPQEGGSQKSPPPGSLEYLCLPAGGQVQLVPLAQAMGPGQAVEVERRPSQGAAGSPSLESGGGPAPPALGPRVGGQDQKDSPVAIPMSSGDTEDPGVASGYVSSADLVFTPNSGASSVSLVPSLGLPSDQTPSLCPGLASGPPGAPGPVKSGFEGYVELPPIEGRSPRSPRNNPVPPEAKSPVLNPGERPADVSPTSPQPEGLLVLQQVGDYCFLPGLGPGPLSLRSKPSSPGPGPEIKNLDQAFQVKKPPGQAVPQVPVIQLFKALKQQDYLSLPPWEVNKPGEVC

activity for the mouse receptor (mouse receptor): has activity
activity for the human receptor (human receptor): does not have activity
Sequence: QPWEHVNAIQEAR {PEG4} DFLLVIP {PEG4} QPWEHVNAIQEAR {PEG4} DFLLVIP [Mimetic M7]
